Source: the NIST ThermoML archive (doi:10.1021/acs.jced.6b00563)

What was measured:
[1] = an = ratio of the nth substance listed; conditions: 100 kPa, Liquid, a1 = 2; for viscosity: Falling or rolling sphere viscometry; for speed of sound: Sing-around technique in a fixed-path interferometer; for mass density: Vibrating tube method
[2] = refractive index (Na D-line) (dimensionless); an = ratio of the nth substance listed; conditions: 100 kPa, Liquid, Standard Abbe refractometry, a1 = 2
[3] = 100 kPa, Liquid; for viscosity: Falling or rolling sphere viscometry; for speed of sound: Sing-around technique in a fixed-path interferometer; for mass density: Vibrating tube method
[4] = refractive index (Na D-line) (dimensionless); conditions: 100 kPa, Liquid, Standard Abbe refractometry

CC(=O)CCC(=O)O [4-oxopentanoic acid] + C[N+](C)(C)CCO.[Cl-]
Conditions	mass density, [1] [kg/m3]	refractive index, [2]	speed of sound, [1] [m/s]	viscosity, [1] [mPa·s]
293.15 K	1141.05	1.46987	1764	365.3
298.15 K	1137.7	1.46867	1749	255.8
303.15 K	1134.34	1.4673	1734	185.5
308.15 K	1130.99	1.46595	1720	136.5
313.15 K	1127.63	1.46457	1707	103.7
318.15 K	1124.3	1.4632	1693	81.5
323.15 K	1120.98	1.4618	1680	64.8
328.15 K	1117.68	1.46041	1667	51.7
333.15 K	1114.69	1.45902	1654	43
338.15 K	1111.41	1.45761	1641	34.1
343.15 K	1108.1	1.45623	1628	28.6

CCCCO [butan-1-ol]
Conditions	mass density, [3] [kg/m3]	refractive index, [4]	speed of sound, [3] [m/s]	viscosity, [3] [mPa·s]
298.15 K	805.75	1.39697	1240	2.568
308.15 K	798.06	1.39281	1206	1.998
318.15 K	790.22	1.38857	1173	1.578

CCO [ethanol]
Conditions	mass density, [3] [kg/m3]	refractive index, [4]	speed of sound, [3] [m/s]	viscosity, [3] [mPa·s]
298.15 K	785.06	1.35905	1143	1.083
308.15 K	776.4	1.35501	1109	0.901
318.15 K	767.6	1.35083	1075	0.758

CCCCCO [pentan-1-ol]
Conditions	mass density, [3] [kg/m3]	refractive index, [4]	speed of sound, [3] [m/s]	viscosity, [3] [mPa·s]
298.15 K	810.88	1.40752	1276	3.502
308.15 K	803.5	1.40352	1242	2.662
318.15 K	795.98	1.39942	1209	2.061

CCCO [propan-1-ol]
Conditions	mass density, [3] [kg/m3]	refractive index, [4]	speed of sound, [3] [m/s]	viscosity, [3] [mPa·s]
298.15 K	799.69	1.38275	1209	1.943
308.15 K	792.76	1.37857	1175	1.549
318.15 K	784.45	1.37421	1141	1.252
